Measurements as given in publication PMC7395068, “The evolution of strategies to minimise the risk of human drug-induced liver injury (DILI) in drug discovery and development” (Archives of Toxicology, 2020).
Like-named read-outs stand apart in the source and are kept apart here.

Tests used:
[1] = test system: PHH; settings: cited from earlier work
[2] = test system: hLiMTs; settings: cited from earlier work
[3] = test system: hLiMTs; experiment: Combined HCI (HCS) and cellular ATP 3D assay in hLiMTs; settings: for AC50 / minimal effective concentration: Homo sapiens
Description: 3D spheroid models consisting of either primary human hepatocytes with non-parenchymal cells (hLiMT’s) or HepaRG cells (HepaRG spheroids) were assessed for size (MS), oxidative stress (OS), MMP, mitochondrial mass (MM), GSH and cellular ATP content following drug exposure. Fluorescent images are acquired using the confocal mode of an ArrayScan™ XTI HCI reader (ThermoScientific) following which cellular ATP was measured using 3D CellTiter-Glo (Promega).

[4] = test system: HepaRG spheroids; experiment: Combined HCI (HCS) and cellular ATP 3D assay in HepaRG spheroids; settings: HepaRG; for AC50 / minimal effective concentration: Homo sapiens
[5] = test system: isolated mouse liver mitochondria; settings: In vitro Assay; ref Porceddu 2012; cited from earlier work
[6] = cited from earlier work
[7] = test system: HepG2 cells; settings: In vitro Assay; ref O'Brien 2006; cited from earlier work
[8] = test system: HepG2 cells; settings: In vitro Assay; ref Persson 2013; cited from earlier work
[9] = test system: human hepatocytes; settings: In vitro Assay; ref Xu 2008; cited from earlier work
[10] = test system: THLE or HepG2 cells, isolated mitochondria, BSEP; settings: In vitro Assay; ref Aleo 2019; cited from earlier work
[11] = cited from earlier work; remark: listed apart in the source
[12] = test system: primary human hepatocytes, NIH3T3 fibroblasts, BSEP, CYP3A4; settings: In vitro Assay; ref Schadt 2015; cited from earlier work
[13] = In vitro Assay, ref Proctor 2017

NCCCC(O)(P(=O)(O)O)P(=O)(O)O [alendronate]
PHH/100uM, Proctor (2017) ([1]; 2D PHH, ATP, IC50 threshold 100 µM, ref Proctor et al. 2017): -VE | PHH ATP <100uM [1, 13]: -VE | hLiMTs ATP <100uM [2, 13]: -VE | hLiMTs/100uM, Proctor (2017) ([2]; hLiMTs, ATP, IC50 threshold 100 µM, ref Proctor et al. 2017): -VE | AC50 ([3]; read-out: ATP endpoint AC50): 7.71 µM | minimal effective concentration ([3]; read-out: ATP endpoint MEC): 2.86 µM | AC50 ([3]; read-out: HCS endpoint AC50): 15.6 µM | minimal effective concentration ([3]; read-out: HCS endpoint MEC): 2.24 µM | hLiMTs <10 uM All ([3]; hLiMTs, all endpoints, cut-off <10 uM): +ve (<10 uM) | HepaRG <10 uM All ([4]; all endpoints, cut-off <10 uM): +ve (<10 uM) | AC50 ([4]; read-out: ATP endpoint AC50): 0.822 µM | minimal effective concentration ([4]; read-out: ATP endpoint MEC): 0.291 µM | AC50 ([4]; read-out: HCS endpoint AC50): 3.13 µM | minimal effective concentration ([4]; read-out: HCS endpoint MEC): 0.58 µM

CC(C)c1c(C(=O)Nc2ccccc2)c(-c2ccccc2)c(-c2ccc(F)cc2)n1CC[C@@H](O)C[C@@H](O)CC(=O)O [atorvastatin]
PHH ATP <100uM [1, 13]: -VE | hLiMTs ATP <100uM [2, 13]: +VE (IC50 threshold of 100 µM) | in vitro data EC20<=2uM [5]: +VE

C[C@]12CC[C@@H]3c4ccc(O)cc4CC[C@H]3[C@@H]1CC[C@@H]2O [beta-estradiol]
PHH ATP <100uM [1, 13]: -VE | hLiMTs ATP <100uM [2, 13]: +VE (IC50 threshold of 100 µM) | in vitro data EC2<=1x Cmax [5]: -VE | in vitro data EC20<=2uM [5]: -VE

C[C@@](Cc1ccc(O)c(O)c1)(NN)C(=O)O [carbidopa]
DILI +VE (5-8), DILI -VE (-4) ([6]; ref Chen 2016): -VE | DILI severity category ([6]; ref Chen 2016): Ambiguous DILI-concern | Structural based (HCI) [7]: -VE | Cluser analysis [8]: -VE | Structural based (HCI) [8]: -VE | Structural based (HCI) [9]: -VE | Partition Hybrid HRM Score [10]: -VE | Ro2 Hybrid HRM Score [10]: -VE | In vivo DILI ([11]; ref O'Brien 2006): -VE | In vivo DILI ([11]; ref Persson 2013): -VE | In vivo DILI ([11]; ref Xu 2008): -VE

COc1cc(N)c(Cl)cc1C(=O)NC1CCN(CCCOc2ccc(F)cc2)CC1OC (centres unmarked) [cisapride]
Structural based (HCI) [7]: +VE | Cluser analysis [8]: -VE | Structural based (HCI) [8]: -VE | Structural based (HCI) [9]: -VE | In vivo DILI ([11]; […]): -VE | In vivo DILI ([11]; ref O'Brien 2006): -VE | In vivo DILI ([11]; ref Persson 2013): -VE | In vivo DILI ([11]; ref Xu 2008): -VE

[H]/N=C(/N)c1ccc(NCc2nc3cc(C(=O)N(CCC(=O)O)c4ccccn4)ccc3n2C)cc1 [dabigatran]
Cellular toxicity (3T3 cells) [12]: -VE | Combined Assay [12]: -VE | GSH adduct HML [12]: -VE | Hepatocyte cellular toxicity [12]: +VE | MitoTox 3T3 [12]: -VE | TDI CYP3A4 [12]: -VE | hBSEP inhibition [12]: +VE | PHH ATP <100uM [1, 13]: -VE | hLiMTs ATP <100uM [2, 13]: -VE | In vivo DILI ([11]; ref Proctor 2017): -VE | In vivo DILI ([11]; ref Schadt 2015): -VE

CNC(=O)Oc1ccc2c(c1)[C@]1(C)CCN(C)[C@@H]1N2C [eserine]
Structural based (HCI) [7]: +VE (lowest HCI endpoint IC50 (or in the absence of dose–response < 100 µM) < 30 × total human plasma exposure levels (Cmax.tot)) | Cluser analysis [8]: -VE | Structural based (HCI) [8]: -VE | Structural based (HCI) [9]: -VE | In vivo DILI ([11]; ref O'Brien 2006): -VE | In vivo DILI ([11]; ref Persson 2013): -VE | In vivo DILI ([11]; ref Xu 2008): -VE

CCN1C(=O)NC(c2ccccc2)C1=O (centres unmarked) [ethotion]
PHH ATP <100uM [1]: -VE | hLiMTs ATP <100uM [2]: -VE

CCOC(=O)C1=C(C)NC(C)=C(C(=O)OC)C1c1cccc(Cl)c1Cl (centres unmarked) [felodipine]
DILI +VE (5-8), DILI -VE (-4) ([6]; in vivo): +VE | DILI severity category ([6]; in vivo): vLess-DILI-Concern | PHH ATP <100uM [1]: -VE | hLiMTs ATP <100uM [2]: -VE | In vivo DILI ([11]; in vivo): -VE

CCC1=C(C)CN(C(=O)NCCc2ccc(S(=O)(=O)NC(=O)N[C@H]3CC[C@H](C)CC3)cc2)C1=O [glimepiride]
DILI +VE (5-8), DILI -VE (-4) ([6]; ref Chen 2016): +VE | DILI severity category ([6]; ref Chen 2016): vLess-DILI-Concern | Structural based (HCI) [7]: -VE | Cluser analysis [8]: -VE | Structural based (HCI) [8]: -VE | Structural based (HCI) [9]: -VE | Partition Hybrid HRM Score [10]: -VE | Ro2 Hybrid HRM Score [10]: -VE | In vivo DILI ([11]; ref Aleo 2019): +VE | In vivo DILI ([11]; ref O'Brien 2006): -VE | In vivo DILI ([11]; ref Persson 2013): -VE | In vivo DILI ([11]; ref Porceddu 2012): +VE | In vivo DILI ([11]; ref Xu 2008): -VE | in vitro data EC2<=1x Cmax [5]: -VE | in vitro data EC20<=2uM [5]: +VE

C[N+](C)(C)C[C@H](O)CC(=O)[O-] [levocarnitine]
PHH ATP <100uM [1, 13]: -VE | hLiMTs ATP <100uM [2, 13]: -VE | In vivo DILI ([11]; ref Proctor 2017): -VE

Cc1cnc(NC(=O)C2=C(O)c3ccccc3S(=O)(=O)N2C)s1 [meloxicam]
DILI +VE (5-8), DILI -VE (-4) ([6]; in vivo): +VE | DILI severity category ([6]; in vivo): vLess-DILI-Concern | Cellular toxicity (3T3 cells) [12]: -VE | Combined Assay [12]: -VE | GSH adduct HML [12]: -VE | Hepatocyte cellular toxicity [12]: -VE | MitoTox 3T3 [12]: -VE | TDI CYP3A4 [12]: -VE | hBSEP inhibition [12]: -VE | PHH ATP <100uM [1]: -VE | hLiMTs ATP <100uM [2]: -VE

CO[C@@]12[C@H](COC(N)=O)C3=C(C(=O)C(C)=C(N)C3=O)N1C[C@@H]1N[C@@H]12 [mitomycin]
PHH ATP <100uM [1]: +VE (key: +VE: IC50 threshold of 100 µM)

CO[C@@H]1[C@@H](OC(N)=O)[C@@H](O)[C@H](Oc2ccc3c(O)c(NC(=O)c4ccc(O)c(CC=C(C)C)c4)c(=O)oc3c2C)OC1(C)C [novobiocin]
Structural based (HCI) [7]: -VE | Cluser analysis [8]: -VE | Structural based (HCI) [8]: -VE | Structural based (HCI) [9]: +VE | In vivo DILI ([11]; ref O'Brien 2006): +VE | In vivo DILI ([11]; ref Persson 2013): +VE | In vivo DILI ([11]; ref Porceddu 2012): +VE | In vivo DILI ([11]; ref Xu 2008): +VE | in vitro data EC2<=1x Cmax [5]: -VE | in vitro data EC20<=2uM [5]: +VE

CC[N+](C)(CC)CCOC(=O)C(O)(c1ccccc1)C1CCCCC1 (centres unmarked) [oxyphenonium]
Structural based (HCI) [7]: -VE | Cluser analysis [8]: -VE | Structural based (HCI) [8]: -VE | Structural based (HCI) [9]: -VE | In vivo DILI ([11]; ref O'Brien 2006): -VE | In vivo DILI ([11]; ref Persson 2013): -VE | In vivo DILI ([11]; ref Xu 2008): -VE

CC(C)(C)NC[C@H](O)COc1ccccc1C1CCCC1 [penbutolol]
DILI +VE (5-8), DILI -VE (-4) ([6]; ref Chen 2016): -VE | DILI severity category ([6]; ref Chen 2016): vNo-DILI-Concern | Cellular toxicity (3T3 cells) [12]: -VE | Combined Assay [12]: -VE | GSH adduct HML [12]: -VE | Hepatocyte cellular toxicity [12]: -VE | MitoTox 3T3 [12]: -VE | TDI CYP3A4 [12]: -VE | hBSEP inhibition [12]: -VE | Partition Hybrid HRM Score [10]: -VE | Ro2 Hybrid HRM Score [10]: -VE | PHH ATP <100uM [1, 13]: +VE (IC50 threshold of 100 µM) | hLiMTs ATP <100uM [2, 13]: +VE (IC50 threshold of 100 µM) | In vivo DILI ([11]; ref Aleo 2019): -VE | In vivo DILI ([11]; ref Proctor 2017): -VE | In vivo DILI ([11]; ref Schadt 2015): -VE

OC(CCN1CCCC1)(c1ccccc1)C1CCCCC1 (centres unmarked) [procyclidine]
DILI +VE (5-8), DILI -VE (-4) ([6]; in vivo): -VE | DILI severity category ([6]; in vivo): vNo-DILI-Concern | PHH ATP <100uM [1]: +VE (key: +VE: IC50 threshold of 100 µM) | hLiMTs ATP <100uM [2]: -VE | In vivo DILI ([11]; in vivo): -VE

CN[C@@H]1[C@H](O)[C@H](NC)[C@H]2O[C@@]3(O)C(=O)C[C@@H](C)O[C@H]3O[C@@H]2[C@H]1O [spectinomycin]
DILI +VE (5-8), DILI -VE (-4) ([6]; ref Chen 2016): -VE | DILI severity category ([6]; ref Chen 2016): Ambiguous DILI-concern | PHH ATP <100uM [1, 13]: -VE | hLiMTs ATP <100uM [2, 13]: -VE | In vivo DILI ([11]; ref Porceddu 2012): +VE | In vivo DILI ([11]; ref Proctor 2017): +VE | in vitro data EC2<=1x Cmax [5]: +VE | in vitro data EC20<=2uM [5]: +VE

Cn1c(=O)c2[nH]cnc2n(C)c1=O [theophylline]
Cellular toxicity (3T3 cells) [12]: -VE | Combined Assay [12]: -VE | GSH adduct HML [12]: -VE | Hepatocyte cellular toxicity [12]: -VE | MitoTox 3T3 [12]: -VE | TDI CYP3A4 [12]: -VE | hBSEP inhibition [12]: -VE | PHH ATP <100uM [1]: -VE | hLiMTs ATP <100uM [2]: -VE

CC1=C(/C=C/C(C)=C/C=C/C(C)=C/C(=O)O)C(C)(C)CCC1 [tretinoin]
DILI +VE (5-8), DILI -VE (-4) ([6]; ref Chen 2016): -VE | DILI severity category ([6]; ref Chen 2016): Ambiguous DILI-concern | PHH ATP <100uM [1, 13]: -VE | hLiMTs ATP <100uM [2, 13]: +VE (IC50 threshold of 100 µM) | In vivo DILI ([11]; ref Proctor 2017): +VE
